# Paper PMC5421785, “Citrullination only infrequently impacts peptide binding to HLA class II MHC” (PLoS ONE, 2017)
# Where two headings read alike, the source gives them in different places. Square brackets hold non-standard residues; d marks the D form. Ends that are not written are not given here. Peptide text beside a SMILES is read from it. Cit = NC(=O)NCCC[C@H](N)C(=O)O
# Assays:
# HLA-DRB1*04:01 = biological target: T1, HLA-DRB1*04:01 (Homo sapiens, UniProt P01903+P01911, A100K/A169T/F76Y/I96L/K127E/L162R/M171V/N62H/P40V/Q125Y/R42H/S133A/S149N/S66Y/V115G/V209L/W38E); experiment: HLA class II peptide binding, inhibition of radiolabeled peptide binding to purified MHC
# T1 construct: EBV transformed homozygous cell lines were used as sources of MHC molecules; endogenous in cells; host or cells: EBV transformed homozygous cell lines
# HLA-DRB1*01:01 = biological target: T2, HLA-DRB1*01:01 (Homo sapiens, UniProt P01903+P01911, A100R/D57E/F55L/F60I/F76Y/I96L/L162R/M171V/P40L/Q125E/R42F/V115G/Y59C); experiment: as above
# T2 construct: EBV transformed homozygous cell lines were used as sources of MHC molecules; endogenous in cells; host or cells: EBV transformed homozygous cell lines
# [1] = citrullinated 15-mer peptide (X = citrulline), purified HLA-DRB1*04:01, read-out: DRB1*04:01 binding capacity, Cit peptide (IC50 nM)
# [2] = citrullinated 15-mer peptide (X = citrulline), purified HLA-DRB1*01:01, read-out: DRB1*01:01 binding capacity, Cit peptide (IC50 nM)
# [3] = citrullinated 15-mer (X), purified MHC, inhibition of radiolabeled peptide binding, dash = IC50 >40,000 nM, read-out: DRB1*04:01 binding capacity, Cit peptide (IC50 nM)
# [4] = citrullinated 15-mer (X), purified MHC, inhibition of radiolabeled peptide binding, dash = IC50 >40,000 nM, read-out: DRB1*01:01 binding capacity, Cit peptide (IC50 nM)
# [5] = wild-type (unmodified Arg) 15-mer peptide, purified HLA-DRB1*04:01, read-out: DRB1*04:01 binding capacity, WT peptide (IC50 nM)
# [6] = wild-type (unmodified Arg) 15-mer peptide, purified HLA-DRB1*01:01, read-out: DRB1*01:01 binding capacity, WT peptide (IC50 nM)
# [7] = read-out: DRB1*04:01 binding capacity, WT peptide (IC50 nM)
# [8] = read-out: DRB1*01:01 binding capacity, WT peptide (IC50 nM)
molecule,measurement,setting,value
CC[C@H](C)[C@H](NC(=O)[C@H](CCCNC(=N)N)NC(=O)[C@H](CO)NC(=O)[C@H](CCC(=O)O)NC(=O)[C@H](CCC(=O)O)NC(=O)CNC(=O)[C@H](CCC(=O)O)NC(=O)[C@H](CC(C)C)NC(=O)[C@H](CC(C)C)NC(=O)[C@H](CCCCN)NC(=O)[C@@H](N)CCCNC(N)=O)C(=O)N[C@@H](CO)C(=O)N[C@@H](CC(C)C)C(=O)N1CCC[C@H]1C(=O)N[C@@H](CC(C)C)C(=O)O [XKLLEGEESRISLPL],IC50,HLA-DRB1*04:01; [1],1890 nM
same,IC50,HLA-DRB1*01:01; [2],853 nM
CC(C)C[C@H](NC(=O)[C@H](C)NC(=O)[C@H](CC(=O)O)NC(=O)[C@@H](NC(=O)[C@H](CCC(=O)O)NC(=O)[C@H](CS)NC(=O)[C@@H](NC(=O)[C@H](CC(C)C)NC(=O)[C@H](CO)NC(=O)[C@H](CCC(N)=O)NC(=O)[C@@H](NC(=O)[C@H](CCC(N)=O)NC(=O)[C@@H](N)CCCNC(N)=O)C(C)C)[C@@H](C)O)C(C)C)C(=O)N[C@@H](CCCCN)C(=O)NCC(=O)O [XQVQSLTCEVDALKG] (H-[Cit]QVQSLTCEVDALKG-OH),IC50,HLA-DRB1*04:01; [1],15500 nM
same,IC50,HLA-DRB1*01:01; [2],5110 nM
CC(C)C[C@H](NC(=O)[C@H](CC(C)C)NC(=O)[C@H](CCCNC(=N)N)NC(=O)[C@@H](NC(=O)CNC(=O)[C@@H]1CCCN1C(=O)[C@@H](NC(=O)[C@H](CO)NC(=O)[C@H](CO)NC(=O)[C@@H](N)CCCNC(N)=O)C(C)C)C(C)C)C(=O)N[C@@H](CCC(N)=O)C(=O)N[C@@H](CC(=O)O)C(=O)N[C@@H](CO)C(=O)N[C@H](C(=O)N[C@@H](CC(=O)O)C(=O)O)C(C)C [XSSVPGVRLLQDSVD] (H-[Cit]SSVPGVRLLQDSVD-OH),IC50,HLA-DRB1*04:01; [3],9620 nM
same,IC50,HLA-DRB1*01:01; [4],533 nM
CC(C)C[C@H](NC(=O)[C@H](C)NC(=O)[C@H](CO)NC(=O)CNC(=O)[C@H](CC(C)C)NC(=O)[C@H](CO)NC(=O)[C@H](Cc1ccc(O)cc1)NC(=O)[C@@H](NC(=O)[C@@H](N)CCCNC(N)=O)[C@@H](C)O)C(=O)N[C@@H](CCCNC(=N)N)C(=O)N1CCC[C@H]1C(=O)N[C@@H](CO)C(=O)N[C@H](C(=O)N[C@@H](CO)C(=O)N[C@@H](CCCNC(=N)N)C(=O)O)[C@@H](C)O [XTYSLGSALRPSTSR] (H-[Cit]TYSLGSALRPSTSR-OH),IC50,HLA-DRB1*04:01; [3],4770 nM
same,IC50,HLA-DRB1*01:01; [4],53 nM
CC(C)C[C@H](NC(=O)[C@H](CCCNC(=N)N)NC(=O)[C@@H](NC(=O)[C@H](C)NC(=O)[C@H](CO)NC(=O)[C@H](CO)NC(=O)[C@H](CCCNC(=N)N)NC(=O)[C@@H](NC(=O)[C@H](C)NC(=O)[C@@H](N)Cc1ccc(O)cc1)[C@@H](C)O)C(C)C)C(=O)N[C@@H](CCCNC(N)=O)C(=O)N[C@@H](CO)C(=O)N[C@@H](CO)C(=O)N[C@H](C(=O)N1CCC[C@H]1C(=O)O)C(C)C [YATRSSAVRLXSSVP] (H-YATRSSAVRL[Cit]SSVP-OH),IC50,HLA-DRB1*04:01; [3],338 nM
same,IC50,HLA-DRB1*01:01; [4],31 nM
CC(C)C[C@H](NC(=O)[C@H](CCCNC(N)=O)NC(=O)[C@@H](NC(=O)[C@H](C)NC(=O)[C@H](CO)NC(=O)[C@H](CO)NC(=O)[C@H](CCCNC(=N)N)NC(=O)[C@@H](NC(=O)[C@H](C)NC(=O)[C@@H](N)Cc1ccc(O)cc1)[C@@H](C)O)C(C)C)C(=O)N[C@@H](CCCNC(=N)N)C(=O)N[C@@H](CO)C(=O)N[C@@H](CO)C(=O)N[C@H](C(=O)N1CCC[C@H]1C(=O)O)C(C)C [YATRSSAVXLRSSVP] (H-YATRSSAV[Cit]LRSSVP-OH),IC50,HLA-DRB1*04:01; [3],3220 nM
same,IC50,HLA-DRB1*01:01; [4],41 nM
CC(C)C[C@H](NC(=O)[C@H](CCCNC(=N)N)NC(=O)[C@@H](NC(=O)[C@H](C)NC(=O)[C@H](CO)NC(=O)[C@H](CO)NC(=O)[C@H](CCCNC(N)=O)NC(=O)[C@@H](NC(=O)[C@H](C)NC(=O)[C@@H](N)Cc1ccc(O)cc1)[C@@H](C)O)C(C)C)C(=O)N[C@@H](CCCNC(=N)N)C(=O)N[C@@H](CO)C(=O)N[C@@H](CO)C(=O)N[C@H](C(=O)N1CCC[C@H]1C(=O)O)C(C)C [YATXSSAVRLRSSVP] (H-YAT[Cit]SSAVRLRSSVP-OH),IC50,HLA-DRB1*04:01; [3],3720 nM
same,IC50,HLA-DRB1*01:01; [4],12 nM
CC(C)C[C@H](NC(=O)[C@H](CC(=O)O)NC(=O)[C@H](C)NC(=O)[C@H](Cc1ccccc1)NC(=O)[C@H](CCCCN)NC(=O)[C@H](CO)NC(=O)[C@H](CCCCN)NC(=O)[C@@H](N)Cc1ccc(O)cc1)C(=O)N[C@@H](CO)C(=O)N[C@@H](CCC(=O)O)C(=O)N[C@@H](C)C(=O)N[C@@H](C)C(=O)N[C@@H](CC(N)=O)C(=O)N[C@@H](CCCNC(N)=O)C(=O)N[C@@H](CC(N)=O)C(=O)O [YKSKFADLSEAANXN] (H-YKSKFADLSEAAN[Cit]N-OH),IC50,HLA-DRB1*04:01; [3],1110 nM
same,IC50,HLA-DRB1*01:01; [4],292 nM
CSCC[C@H](NC(=O)[C@H](CCCNC(=N)N)NC(=O)[C@H](CCCNC(=N)N)NC(=O)[C@@H](N)Cc1ccc(O)cc1)C(=O)N[C@@H](Cc1ccccc1)C(=O)NCC(=O)NCC(=O)N1CCC[C@H]1C(=O)NCC(=O)N[C@H](C(=O)N[C@@H](C)C(=O)N[C@@H](CO)C(=O)N[C@@H](CCCNC(N)=O)C(=O)N1CCC[C@H]1C(=O)N[C@@H](CO)C(=O)O)[C@@H](C)O [YRRMFGGPGTASXPS] (H-YRRMFGGPGTAS[Cit]PS-OH),IC50,HLA-DRB1*04:01; [3],6870 nM
same,IC50,HLA-DRB1*01:01; [4],334 nM
CSCC[C@H](NC(=O)[C@H](CCCNC(N)=O)NC(=O)[C@H](CCCNC(=N)N)NC(=O)[C@@H](N)Cc1ccc(O)cc1)C(=O)N[C@@H](Cc1ccccc1)C(=O)NCC(=O)NCC(=O)N1CCC[C@H]1C(=O)NCC(=O)N[C@H](C(=O)N[C@@H](C)C(=O)N[C@@H](CO)C(=O)N[C@@H](CCCNC(=N)N)C(=O)N1CCC[C@H]1C(=O)N[C@@H](CO)C(=O)O)[C@@H](C)O [YRXMFGGPGTASRPS] (H-YR[Cit]MFGGPGTASRPS-OH),IC50,HLA-DRB1*04:01; [3],15800 nM
same,IC50,HLA-DRB1*01:01; [4],512 nM
CSCC[C@H](NC(=O)[C@H](CCCNC(=N)N)NC(=O)[C@H](CCCNC(N)=O)NC(=O)[C@@H](N)Cc1ccc(O)cc1)C(=O)N[C@@H](Cc1ccccc1)C(=O)NCC(=O)NCC(=O)N1CCC[C@H]1C(=O)NCC(=O)N[C@H](C(=O)N[C@@H](C)C(=O)N[C@@H](CO)C(=O)N[C@@H](CCCNC(=N)N)C(=O)N1CCC[C@H]1C(=O)N[C@@H](CO)C(=O)O)[C@@H](C)O [YXRMFGGPGTASRPS] (H-Y[Cit]RMFGGPGTASRPS-OH),IC50,HLA-DRB1*04:01; [3],27400 nM
same,IC50,HLA-DRB1*01:01; [4],252 nM
AAGVKGDRGETGAVG [Collagen 1051 WT],IC50,HLA-DRB1*04:01; [5],25200 nM
same,IC50,HLA-DRB1*01:01; [6],1150 nM
AANRNNDALRQAKQE [Vimentin 301 WT],IC50,HLA-DRB1*04:01; [7],> 40000 nM
same,IC50,HLA-DRB1*01:01; [8],> 40000 nM
ADLSEAANRNNDALR [Vimentin 296 WT],IC50,HLA-DRB1*04:01; [7],13900 nM
same,IC50,HLA-DRB1*01:01; [8],4500 nM
AGEPGERGLKGHRGF [Collagen 1121 WT],IC50,HLA-DRB1*04:01; [5],> 40000 nM
same,IC50,HLA-DRB1*01:01; [6],85 nM
AINTEFKNTRTNEKV [Vimentin 91 WT],IC50,HLA-DRB1*04:01; [7],1340 nM
same,IC50,HLA-DRB1*01:01; [8],1330 nM
ANYQDTIGRLQDEIQ [Vimentin 356 WT],IC50,HLA-DRB1*04:01; [5],11500 nM
same,IC50,HLA-DRB1*01:01; [6],625 nM
ARGAQGPPGATGFPG [Collagen 886 WT],IC50,HLA-DRB1*04:01; [5],> 40000 nM
same,IC50,HLA-DRB1*01:01; [6],32200 nM
ARLDLERKVESLQEE [Vimentin 216 WT],IC50,HLA-DRB1*04:01; [7],17200 nM
same,IC50,HLA-DRB1*01:01; [8],6310 nM
ASRPSSSRSYVTTST [Vimentin 21 WT],IC50,HLA-DRB1*04:01; [7],1030 nM
same,IC50,HLA-DRB1*01:01; [8],7580 nM
DALKGTNESLERQMR [Vimentin 331 WT],IC50,HLA-DRB1*04:01; [5],18000 nM
same,IC50,HLA-DRB1*01:01; [6],39900 nM
